Reference: ChEMBL document CHEMBL1139547, “Anesthetic potency of two novel synthetic polyhydric alkanols longer than the n-alkanol cutoff: evidence for a bilayer-mediated mechanism of anesthesia?” (J Med Chem, 2005)

Assay: Effective concentration for phenotypic endpoint in tadpoles
Design: species or system frog, Tadpole

- EC50: ~700 µM
Compound: CCCCCCO [1-HEXANOL]
